Data published in PMC11704008 (Scientific Reports, 2025).
≈ marks a conversion by molar mass, not a printed value. Where two headings read alike, the source gives them in different places.

Legend:
[1] = format: physicochemical
[2] = format: physicochemical; remark: listed apart in the source

- solvation heat (ΔHsol) ([1]; difference between ΔHvap and ΔHtotal): -5.382 kcal/mol
- total heat (∆Htotal), Chrastil model ([1]; methyldopa in ScCO2): 8.21 kcal/mol
- vaporization heat (∆Hvap), Bartle et al. model ([1]; methyldopa in ScCO2): 13.59 kcal/mol
- y × 10^5 (mole fraction in ScCO2) ([2]; 313 K, 12 MPa, CO2 density 719.2 kg.m^−3): 2.481
- y × 10^5 (mole fraction in ScCO2) ([2]; 313 K, 15 MPa, CO2 density 781.2 kg.m^−3): 3.013
- y × 10^5 (mole fraction in ScCO2) ([2]; 313 K, 18 MPa, CO2 density 820.7 kg.m^−3): 3.942
- y × 10^5 (mole fraction in ScCO2) ([2]; 313 K, 21 MPa, CO2 density 850.4 kg.m^−3): 4.531
- y × 10^5 (mole fraction in ScCO2) ([2]; 313 K, 24 MPa, CO2 density 873.9 kg.m^−3): 5.520
- y × 10^5 (mole fraction in ScCO2) ([2]; 313 K, 27 MPa, CO2 density 893.5 kg.m^−3): 6.320
- y × 10^5 (mole fraction in ScCO2) ([2]; 313 K, 30 MPa, CO2 density 910.3 kg.m^−3): 7.652
- y × 10^5 (mole fraction in ScCO2) ([2]; 323 K, 12 MPa, CO2 density 587.2 kg.m^−3): 1.880
- y × 10^5 (mole fraction in ScCO2) ([2]; 323 K, 15 MPa, CO2 density 701.1 kg.m^−3): 3.390
- y × 10^5 (mole fraction in ScCO2) ([2]; 323 K, 18 MPa, CO2 density 758.8 kg.m^−3): 4.490
- y × 10^5 (mole fraction in ScCO2) ([2]; 323 K, 21 MPa, CO2 density 797.4 kg.m^−3): 5.910
- y × 10^5 (mole fraction in ScCO2) ([2]; 323 K, 24 MPa, CO2 density 826.1 kg.m^−3): 7.114
- y × 10^5 (mole fraction in ScCO2) ([2]; 323 K, 27 MPa, CO2 density 851.7 kg.m^−3): 7.790
- y × 10^5 (mole fraction in ScCO2) ([2]; 323 K, 30 MPa, CO2 density 871.5 kg.m^−3): 8.832
- y × 10^5 (mole fraction in ScCO2) ([2]; 333 K, 12 MPa, CO2 density 435.3 kg.m^−3): 1.520
- y × 10^5 (mole fraction in ScCO2) ([2]; 333 K, 15 MPa, CO2 density 606.8 kg.m^−3): 2.841
- y × 10^5 (mole fraction in ScCO2) ([2]; 333 K, 18 MPa, CO2 density 688.4 kg.m^−3): 5.090
- y × 10^5 (mole fraction in ScCO2) ([2]; 333 K, 21 MPa, CO2 density 740.3 kg.m^−3): 7.050
- y × 10^5 (mole fraction in ScCO2) ([2]; 333 K, 24 MPa, CO2 density 777.5 kg.m^−3): 8.125
- y × 10^5 (mole fraction in ScCO2) ([2]; 333 K, 27 MPa, CO2 density 806.7 kg.m^−3): 9.163
- y × 10^5 (mole fraction in ScCO2) ([2]; 333 K, 30 MPa, CO2 density 830.5 kg.m^−3): 9.960
- y × 10^5 (mole fraction in ScCO2) ([2]; 343 K, 12 MPa, CO2 density 346.1 kg.m^−3): 0.805
- y × 10^5 (mole fraction in ScCO2) ([2]; 343 K, 15 MPa, CO2 density 507.5 kg.m^−3): 2.043
- y × 10^5 (mole fraction in ScCO2) ([2]; 343 K, 18 MPa, CO2 density 613.5 kg.m^−3): 5.410
- y × 10^5 (mole fraction in ScCO2) ([2]; 343 K, 21 MPa, CO2 density 678.9 kg.m^−3): 7.484
- y × 10^5 (mole fraction in ScCO2) ([2]; 343 K, 24 MPa, CO2 density 724.9 kg.m^−3): 8.632
- y × 10^5 (mole fraction in ScCO2) ([2]; 343 K, 27 MPa, CO2 density 760.3 kg.m^−3): 10.061
- y × 10^5 (mole fraction in ScCO2) ([2]; 343 K, 30 MPa, CO2 density 788.9 kg.m^−3): 11.345
- solubility at 5 h ([2]; solubility S in ScCO2, range over all conditions, 12–30 MPa, 313–343 K): 13.4 to 428 µg/mL (≈ 63.4 to 2030 µM)
SMILES: C[C@](N)(Cc1ccc(O)c(O)c1)C(=O)O [methyldopa, Methyldopa]
